Measured values from article PMC12188386, “Selective CBP/EP300 Bromodomain Inhibitors: Novel Epigenetic Tools to Counter TNF-α-Driven Inflammation” (JACS Au, 2025).

Experiments:
[1] = test system: rmTNF-α-induced cytokines in the popliteal lymph node; experiment: TNF-α induced inflammation model, cytokines in pLN (LEGENDplex); type: in vivo, mouse; settings: mice, 5 h post-rmTNF-α; for concentrations of IL-1β, MCP-1, IL-1α and IL-6 in the pLN: CAPTISOL solutions s.c. (footpad) and i.p. 90 min after rmTNF-α, vs rmTNF-α + CAPTISOL
Experimental: C57BL/6 mice were bred in -house or acquired from Charles River Laboratories. Mice were maintained in specific pathogen -free facilities at the Institute for Research in Biomedicine, Bellinzona. Experiments were performed following the Swiss Federal Veterina ry Office guidelines and authorized by the relevant institutional committee of the Cantonal Veterinary (Commissione cantonale per gli esperimenti sugli animali, Ticino) .
TNF-α induced inflammation model
Recombinant Mouse TNF-α (rmTNF-α) (aa 80-235) Protein (Cat# 410-MT-050/CF) was purchased from RnDsystems® and resuspended following instruction into sterile PBS. Mice were anesthetized with isoflurane and 300 ng of rmTNF-α was administered subcutaneously in the footpad (10 µL injection volume), and for the experiments with the CBP/EP300 inhibitors an additional 300 ng of rmTNF-α was also administered intraperitoneally (100 µL injection volume). After 1.5 h, mice were injected with 10 µL of the prepared CAPTISOL […]
foodpad and also intraperitoneally (for i.p. injection, the 10 µL of CAPTISOL solution was diluted to a final volume of 100 µL using PBS). Organs were collected 5 h after TNF-α […]
LEGENDPlexTM assays (Mouse Pro-inflammatory Chemokine Panel and Mouse Inflammation Panel; Biolegend) were performed to monitor cytokine/chemokine expression. Briefly, popliteal LNs were collected and carefully disrupted in […] ice-cold phosphate buffer, minimizing cell rupture. The suspension was centrifuged at 1,500 rpm for 5 min, and the […]
supernatant was c ected. μ supernatant was used f r the pr t c f win the manufacturer’s instructi ns. amp es were ana zed f w c t metr n an rtessa Biosciences), and data was analyzed using LEGENDPlex software (BioLegend).
Popliteal LNs were collected, disrupted with tweezers, and digested for 10 min at 37°C in an enzyme mix composed of DNase I (0.28 mg/mL, Amresco), dispase (1 U/mL, Corning), and collagenase P (0.5 mg/mL, Roche) in calcium- and magnesium-free PBS (PBS-, Sigma-Aldrich) followed by a stop solution composed of 2 mM EDTA (Sigma -Aldrich) and 2% heat-inactivated filter-sterilized fetal calf serum (Thermo Fisher Scientific) in PBS -. […] Where indicated, intracellular staining was performed using Intracellular Fixation and Permeabilization Buffer Set (eBioscience), following the manufacturer’s instructi ns. ead ce s were exc uded u sing Zombie fixable viability dye (Biolegend), and data were analyzed using FlowJo software (TriStar Inc).
In this study, various combinations of the following fluorescence -conjugated antibodies have been used for cell-surface phen t pic stainin : α - α α […]
Data was analysed and graphs prepared using GraphPad Prism. […]

786-0 = experiment: NCI-60 one-dose screen; type: cell-based, human; settings: 10 µM, 48 h, Renal Cancer
Experimental: (§1) Adapted from NCI-60 Screening Methodology, one-dose screen:20 Briefly, human tumor cell lines, grown in RPMI 1640 containing 5% FBS and 2 mM L-glutamine, were plated in 96 well plates at densities ranging from 5,000 to 40,000 cells/well 24 h prior to addition of test compounds (here 10 μM 2). 400x solutions of test compounds were prepared in DMSO, then diluted to 2x in medium supplemented with 50 μg/mL gentamicin. 100 μl of this 2x stock was added to cells previously plated in 100 μl medium, resulting in the desired final compound concentration. Cells were fixed in situ with cold TCA: untreated cells at the time of compound addition (Tz) and treated cells 48 h after addition of compound (Ti). Cells were washed, then su f rh damine s uti n μ at . w/v in acetic acid was added to each well and incubated for 10 minutes at room temperature. After washing again, the plates were air dried and bound stain solubilized with 10 mM Trizma base before absorbance was […]
(§2) Percentage growth (%Growth) was calculated as follows:
(§3) when Ti ≥ Tz, %Growth = Ti − Tz x 100 where Ti = absorbance from compound treated cells, Tz = absorbance from untreated cells at time zero, and C = absorbance from control (DMSO) treated cells. […]

CCRF-CEM = experiment: NCI-60 one-dose screen; type: cell-based, human; settings: 10 µM, 48 h, Leukemia, relative to no-drug control and time zero
Experimental: as §1, §2, §3

HCT-116 = experiment: NCI-60 one-dose screen; type: cell-based, human; settings: 10 µM, 48 h, Colon Cancer
Experimental: as §1, §2, §3

MDA-MB-468 = experiment: NCI-60 one-dose screen; type: cell-based, human; settings: 10 µM, 48 h, Breast Cancer, values <0 indicate lethality
Experimental: as §1, §2, §3

NCI-H322M = experiment: NCI-60 one-dose screen; type: cell-based, human; settings: 10 µM, 48 h, Non-Small Cell Lung Cancer
Experimental: as §1, §2, §3

OVCAR-5 = experiment: NCI-60 one-dose screen; type: cell-based, human; settings: 10 µM, 48 h, Ovarian Cancer
Experimental: as §1, §2, §3

RXF 393 = experiment: NCI-60 one-dose screen; type: cell-based, human; settings: 10 µM, 48 h, Renal Cancer, values <0 indicate lethality
Experimental: as §1, §2, §3

SNB-75 = experiment: NCI-60 one-dose screen; type: cell-based, human; settings: 10 µM, 48 h, CNS Cancer
Experimental: as §1, §2, §3

HL-60(TB) = experiment: NCI-60 one-dose screen; type: cell-based, human; settings: 10 µM, 48 h, Leukemia
Experimental: compounds with known characteristics were included as controls. Quantification of test and control compounds was performed by LC-MS/MS using an 8-point calibration curve under Cyprotex standard analytical conditions. The initial concentration (C0) at time zero was determined from the dosing solution, and recovery was calculated based on concentrations […]
The apparent permeability coefficient (Papp) is calculated from the equation (where dQ/dt is the drug permeation rate across the cells, C0 is the concentration in the donor compartment at time zero, and A is the area of the cell monolayer):
Efflux ratio (ER) is calculated from mean A-B and B-A data: […]
Adapted from NCI-60 Screening Methodology, one-dose screen:20 Briefly, human tumor cell lines, grown in RPMI 1640 containing 5% FBS and 2 mM L-glutamine, were plated in 96 well plates at densities ranging from 5,000 to 40,000 cells/well 24 h prior to addition of test compounds (here 10 μM 2). […] After washing again, the plates were air dried and bound stain solubilized with 10 mM Trizma base before absorbance was […]
as §2, §3

SMILES | decrease of IL-6 in the pLN compared to GNE-272 [1] | concentrations of IL-1β, MCP-1, IL-1α and IL-6 in the pLN [1] | %Growth (786-0) | %Growth (CCRF-CEM) | %Growth (HCT-116) | %Growth (MDA-MB-468) | %Growth (NCI-H322M) | %Growth (OVCAR-5) | %Growth (RXF 393) | %Growth (SNB-75) | %Growth (HL-60(TB))
Cc1cc2c(NC(=O)c3cc(NC(=O)[C@H]4CCCO4)cc(-c4ccn(C)n4)c3)cccc2nn1 [Compound 5] | 7 fold | significant reduction |  |  |  |  |  |  |  |  | 
Cc1cc2c(NC(=O)c3cc(NC(=O)c4ccco4)cc(-c4ccn(C)n4)c3)cccc2nn1 [Compound 2] | 4 fold | significant reduction | 57% | 43% | 38% | -19% | 86% | 89% | -5% | 27% | 25%
